Reference: patent publication US20060233845A1, “Micro/nanoparticle obtained from lipid-containing marine organisms for use in pharmaceutics and cosmetics” (priority 2002, published 2006)

Experiments:
[1] = Kreitlow, Dissertation Greifswald 2000; cited from earlier work
MRSA = MRSA growth in vitro; type: cell-based, Staphylococcus aureus; conditions: natural substances after the inventive method

Structure (SMILES)	antibacterial activity [1]	growth of MRSA in vitro (MRSA)
CC/C=C\C/C=C\C/C=C\CCCCCCCC(=O)O [linolenic acid, Z,Z,Z-9,12,15-octadecatrienoic acid]	antibacterial activity	–
Cc1cc(O)cc2oc3cc(O)cc(O)c3c(=O)c12 [norlichexanthone]	–	inhibit MRSA-growth in vitro
CCCCC/C=C/C=C/C(O)CCCCCCCC(=O)O (stereo not shown) [dimorphecolic acid]	antibacterial activity	–
CCCCCC(O)/C=C/C=C\CCCCCCCC(=O)O (stereo not shown) [coriolic acid]	antibacterial activity	–
